In US10407488B2, “Therapy for treatment or prevention of conditions associated with bleeding or hypocoagulation” (THE REGENTS OF THE UNIVERSITY OF CALIFORNIA, priority 2013, dated 2019):

Assays:
[1] = test system: clot lysis time in NHP with anti-FVIII antibody; assay: Clot lysis assay (t-PA mediated) in normal human plasma with anti-FVIII antibody; format: biochemical
Protocol: FIGS. 28A and 28B show the synergistic effect of ^superFVa in combination with rhFVIIa on clot stabilization in NHP spiked with anti-FVIII antibody. Clot lysis time was determined by t-PA mediated fibrinolysis following thrombin induced fibrin clot formation in NHP spiked with anti-FVIII-antibody. (A) Increasing concentrations of rhFVIIa were added in the absence (open circle) or presence (open square) of ^superFVa (0.37 nM). (B) Increasing concentrations of ^superFVa were added in the absence (open circle) or presence (open square) of rhFVIIa (0.37 nM). Clot lysis time of NHP without inhibitors in the absence (open upward triangle) or presence of CPI (open downward triangle) represent control experiments. Normal human plasma; NHP. Carboxypeptidase inhibitor from potato tubers; CPI. Error bars represent standard error of the mean (n≥3).
Clot stability was studied as t-PA induced clot lysis time in NHP with anti-FVIII antibodies (GMA8015) at 10 μg/mL, as well as in FVIIIdP. The concentration of antibody was based on maximal shortening of the clot lysis time from approximately 105 min to 75 min following antibody titration (data not shown). The clot lysis time in the presence of antibody (10 μg/mL) was similar to the clot lysis time in the presence of CPI, which was used as control since it causes suppression of Thrombin Activatable Fibrinolysis Inhibitor (TAFI) activation. […]

[2] = test system: Balb/c mice treated with anti-FVIII antibodies; assay: Tail clip bleeding assay in Balb/c mice treated with anti-FVIII antibodies; format: in vivo, mouse; conditions: 20 minutes
Protocol: (§1) Mice were anesthetized, placed on temperature controlled heating pads (37° C.), and the distal portion of the tail was cut at 1.5 mm diameter after which the tail was immersed in a predefined volume of 37° C. saline (0.9% NaCl) for 20 minutes. Blood loss was determined by the hemoglobin concentration in the saline solution after red cell lysis with 2% acetic acid and measured by absorbance at 405 nm. Using a hemoglobin standard derived from defined blood volumes, blood loss was calculated assuming a hematocrit of 46% and expressed in μL/g body weight. Groups of FVIII-deficient mice were injected intravenously (retro-orbital) within 2 minutes prior to tail cut with equal volumes ([…]) of sterile saline for injection (0.9%, Hospira Inc.), rhFVIII 200 units/kg FVIII (Xyntha®, Pfizer, NY, N.Y., USA) ^superFVa, rhFVIIa (NovoSeven®, NovoNordisk, Bagsvaerd, Denmark) or a combination of ^superFVa and rhFVIIa. All agents were diluted in sterile sodium chloride 0.9% for injection (Hospira Inc). […]
To further elucidate the efficiency of ^superFVa to reduce bleeding in presence of inhibitors for FVIII either alone or in combination with rhFVIIa, blood loss during a 20 minute bleeding period was determined in a tail transection model in Balb/c mice treated with anti-FVIII antibodies (0.25 mg/kg). […]

[3] = test system: Balb/c mice; assay: Liver laceration bleeding assay, APC-induced bleeding in Balb/c mice; format: in vivo
Protocol: Mice were anesthetized with Isofluorane 3% and the abdomen was opened by substernal blunt midline dissection. […] Immediately after laceration mice were positioned prone into a small weighing dish (8 cm diameter) filled with saline (37° C., 13 mL), transferred into the anesthesia chamber which rested on a heating pad (37° C.). Anesthesia was maintained at 3% Isofluorane and dishes were changed after 10 minutes to collect blood for the first and second 10 minutes separately. Blood loss was determined as described for the tail clip model. Groups of Balb/c mice were injected intravenously (tail vein) with equal volumes (200 μL) of ^superFVa or saline 2 minutes prior to intravenous injection of plasma-derived human APC, followed immediately by liver laceration. All agents were diluted in sterile sodium chloride 0.9% for injection (Hospira Inc).

[4] = test system: FVIII-deficient mice; assay: Tail clip bleeding assay in FVIII-deficient mice; format: in vivo, mouse; conditions: 20 minutes
Protocol: Mice were anesthetized with Isoflurane 3%, placed on temperature controlled heating pads (37° C.), and the distal portion of the tail was cut at 1.5 mm diameter after which the tail was immersed in a predefined volume of 37° C. saline (0.9% NaCl) for 20 minutes. To study effects on bleeding and clot stability, tubes were changed after 10 minutes to collect blood for the first and second 10 minutes separately. Blood loss was determined by the hemoglobin concentration in the saline solution after red cell lysis with 2% acetic acid and measured by absorbance at 490 nm. Using a hemoglobin standard derived from defined blood volumes, blood loss was calculated assuming a hematocrit of 46% and expressed in μL/g body weight. Groups of Balb/c mice were injected intravenously (tail vein) with equal volumes (200 μL) of ^superFVa or saline 2 minutes prior to intravenous injection of rhAPC (Xigris®). Immediately after APC injection tail cut was performed. All agents were diluted in sterile sodium chloride 0.9% for injection (Hospira Inc).
as §1

[5] = test system: thrombin generation in FVIII-deficient plasma; conditions: von Drygalski et al. JTH 2014; cited from earlier work

^superFVa: engineered APC-resistant FVa variant (SEQ ID NO:4): R306Q, R506Q, R679Q, Cys609-Cys1691 disulfide, S2183A, B-domain deleted
concentration at which clot lysis times returned to normal ([1]; factor alone, NHP with anti-FVIII antibody): 3.33 nM
concentration showing enhancement of clot lysis time ([1]; factor individually, 10 μg/ml anti-FVIII antibody): 2 to 5 µg/mL
blood loss ([2]; ^superFVa 10 U/kg): 19.47 µL/g
blood loss ([2]; ^superFVa 40 U/kg): 9.97 µL/g
mean blood loss ([3]; ^superFVa (25 U/mL) prior to APC 1.25 mg/kg, 20 minutes after liver laceration): 29 µL/g
bleeding-induced mortality ([3]; ^superFVa prior to APC, liver laceration): abolished bleeding-induced mortality
bleeding during the 2nd 10 min phase ([3]; ^superFVa prior to wt APC, liver laceration): fully prevented bleeding
mean blood loss ([4]; ^superFVa 10 U/kg iv): 25.9 µL/g
mean blood loss ([4]; ^superFVa 40 U/kg iv): 9.7 µL/g
mean blood loss ([4]; ^superFVa 200 U/kg iv): 2.5 µL/g
increase of ETP in human FVIII-deficient plasma [5]: approximately 2 fold
